# Patent US11224666B2, “Gadolinium contrast agents, scavenging methods, and scavenging system” (Boston Scientific Scimed, Inc., priority 2018, dated 2022)
# Experiment: example reaction demonstrating the sequestration reaction (strained alkyne with azide, in vitro, followed by NMR)
# Conditions: allowed to react with azide-fluor 488 (representing a capture substrate), NMR tube
structure (smiles),measurement,value
"OC[C@H]1[C@H]2CCC#CCC[C@@H]12 [(1R,8S,9s)-Bicyclonon-4-yn-9-ylmethanol]",course of the sequestration (click) reaction,complete before a nuclear magnetic resonance (NMR) tube containing the reaction constituents could be inserted into the probe
